Source: paper PMC6009937, “Comparing hydrazine-derived reactive groups as inhibitors of quinone-dependent amine oxidases” (Journal of Enzyme Inhibition and Medicinal Chemistry, 2017)
Where “and” joins values, the source holds several entries; their conditions need not be identical. Equal values may be shown once. Read-outs that look alike come from different tables or passages of the source.

Tests used:
[1] = target: T1, Lysyl oxidase (LOX) (Bos taurus, UniProt P33072); assay: LOX activity assay (Amplex UltraRed/HRP fluorescence) after preincubation of enzyme with inhibitor; assay type: biochemical, bovine; details: for Selectivity factor (LOX IC50 value divided by LSDAO IC50 value): LOX vs LSDAO; for remaining activity at 7 µM: 7 µM inhibitor; for remaining activity at 7 µM / remaining activity at 20 µM / remaining activity at 100 µM: read-out: Average Percent Activity Remaining, LOX; for remaining activity at 20 µM: 20 µM inhibitor; for remaining activity at 100 µM: 100 µM inhibitor
T1 construct: LOX was isolated from bovine aorta; from tissue; host or cells: bovine aorta
T1 sequence (P33072 170-418): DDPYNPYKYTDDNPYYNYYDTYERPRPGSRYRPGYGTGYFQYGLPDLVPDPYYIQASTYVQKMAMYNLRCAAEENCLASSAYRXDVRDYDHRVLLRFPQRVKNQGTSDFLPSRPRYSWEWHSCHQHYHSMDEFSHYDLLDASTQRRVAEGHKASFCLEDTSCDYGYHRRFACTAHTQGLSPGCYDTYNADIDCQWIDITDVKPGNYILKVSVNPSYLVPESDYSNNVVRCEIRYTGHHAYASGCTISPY
Description: LOX was isolated from bovine aorta at 4 °C using slight modifications of previously published procedures. All steps were carried out at in 16 mM phosphate, pH 7.8 (buffer B). After blending the aorta in buffer B containing 400 mM NaCl and 1 mM EDTA to remove soluble contaminants, the enzyme was extracted with buffer B containing 4 M urea and 1 mM EDTA. The crude enzyme extract was filtered, diluted with an equal volume of buffer B to obtain a urea concentration of 2 M, and loaded onto a DEAE column. After washing with buffer B containing 400 mM NaCl, the enzyme was eluted with buffer B containing 400 mM NaCl and 6 M urea. The urea concentration was reduced to 4 M by adding buffer B, and the solution was added to a slurry of ceramic hydroxyapatite in buffer B containing 4 M urea. After stirring, the supernatant was removed by filtration and dialyzed overnight against buffer B. The solution was added to a slurry of ceramic hydroxyapatite in buffer B, washed with small portions of 1 M phosphate and then buffer B, and then eluted with buffer B containing 6 M urea and 500 mM NaCl. After concentration to about 20 mL, the protein was applied to a Sephacryl S-200 gel filtration column preequilibrated with buffer B containing 50 mM NaCl, 1 mM EDTA, and 6 M urea and eluted with the same buffer. Active fractions were concentrated to 1 mL. Total protein concentration for 6 M urea solutions[33] was determined by its absorption at 280 nm using a molar extinction coefficient of 8.39 × 10^4 M^−1 cm ^−1.
(§1) The activity assay is adopted from the method described by Palamakumbura et al.[35]. Enzyme and inhibitor were incubated at 37 °C for the desired inhibition time, diluted into the assay mixture, and analyzed by fluorescence (Agilent Technologies Cary Eclipse Fluorescence Spectrometer, Cary Eclipse Software, 37 °C, λex = 568 and λem = 581 nm). The assay was carried out in boric acid buffer (50 mM, pH 8.2) with 1.2 M urea for LOX or in phosphate buffer (0.1 M, pH = 7.0) for LSDAO. The final reagent concentrations in the assay mixture were 10 mM cadaverine, 10 μM Amplex UltraRed (Life Technologies, Carlsbad, CA), and 1 U/mL horse radish peroxidase (Amresco, Solon, OH).
(§2) The enzyme activity, which is proportional to the rate of increase in fluorescence, was measured for each experiment. Residual activity was calculated by dividing each rate by a maximum rate determined in the absence of inhibitor such that [residual activity] = ([rate with inhibitor] – [baseline rate])/([maximum rate] – [baseline rate]). […] The residual activities from replicate experiments were averaged. For each inhibitor concentration, log([average residual activity]) was plotted against inhibition time. Linear lines of best fit forced through the origin were calculated for each data set using Graphpad Prism 5.0b (La Jolla, CA). For each inhibitor, the slopes of these lines (min^−1) were plotted as –1/slope against 1/[inhibitor concentration] to produce a Kitz–Wilson plot.
(§3) To quantify the selectivity of each inhibitor, we defined a numerical “selectivity factor” as the inhibitor's IC50 value for LOX divided by its IC50 value for LSDAO (Figure 3(C)).

[2] = target: T2, lentil seedling diamine oxidase (LSDAO) (Lens culinaris, UniProt P49252); assay: LSDAO activity assay (Amplex UltraRed/HRP fluorescence) after preincubation of enzyme with inhibitor; assay type: biochemical
T2 construct: Eight-day-old lentil seedlings (Lens esculenta) were blended and extracted; from tissue; host or cells: eight-day-old lentil seedlings (Lens esculenta)
T2 sequence (P49252 19-667): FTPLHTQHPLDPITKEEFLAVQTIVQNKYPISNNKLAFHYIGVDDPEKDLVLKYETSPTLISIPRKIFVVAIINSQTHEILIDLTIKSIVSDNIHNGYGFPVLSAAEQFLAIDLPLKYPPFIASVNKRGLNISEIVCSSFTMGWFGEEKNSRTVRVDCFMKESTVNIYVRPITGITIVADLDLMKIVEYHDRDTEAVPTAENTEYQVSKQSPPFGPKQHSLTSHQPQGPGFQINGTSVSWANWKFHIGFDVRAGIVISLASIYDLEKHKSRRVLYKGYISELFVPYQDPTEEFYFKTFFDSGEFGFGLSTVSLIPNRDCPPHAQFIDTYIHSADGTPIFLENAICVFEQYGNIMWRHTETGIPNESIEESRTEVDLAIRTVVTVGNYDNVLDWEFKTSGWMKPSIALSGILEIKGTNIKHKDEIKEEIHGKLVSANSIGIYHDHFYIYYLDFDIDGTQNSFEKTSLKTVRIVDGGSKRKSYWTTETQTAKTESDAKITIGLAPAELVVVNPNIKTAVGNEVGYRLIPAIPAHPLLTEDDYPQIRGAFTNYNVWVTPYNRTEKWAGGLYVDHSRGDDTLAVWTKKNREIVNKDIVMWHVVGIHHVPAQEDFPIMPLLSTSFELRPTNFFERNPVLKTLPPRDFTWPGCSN
Description: The LSDAO extraction process was carried out at 4 °C according to the method of Floris et al.[30] with slight modifications. Eight-day-old lentil seedlings (Lens esculenta) were blended and extracted with phosphate buffer (5 mM, pH 6.0, buffer A). Ammonium sulfate (230 g/L, 40% saturation) was used to precipitate contaminants, and then additional ammonium sulfate (125 g/L, 60% saturation) was used to precipitate the LSDAO. The crude precipitate was redissolved, dialyzed against buffer A, applied to a DEAE column, and eluted with buffer A. Active fractions were adjusted to pH 6.5, applied to a CM resin column, and eluted with 5 mM phosphate buffer, pH 6.5. Active fractions were concentrated and the buffer was changed to 10 mM phosphate, pH 7.0 before the protein was applied to a Sephacryl S-300 column and eluted with the same buffer. The concentration of the LSDAO dimer was determined from its absorption at 278 nm in 0.1 M phosphate buffer[31] using a molar extinction coefficient of 2.45 × 10^5 M^−1 cm^−1.
as §1, §2, §3
From the slopes and y-intercepts of these lines, the kinetic parameters KI (the reversible binding constant) and k2 (the rate constant for irreversible reaction) (Figure 5(A)) can be calculated.

[3] = stated in the text without reference; cited from earlier work
[4] = test system: LOX; details: literature data reprocessed by Kitz-Wilson analysis, cited from earlier work
[5] = test system: LOX; parameters: method as in PMID 6131892; details: cited from earlier work
[6] = Kitz-Wilson analysis, rate constant for irreversible reaction
[7] = 4 min, read-out: Average Percent Activity Remaining, LSDAO
[8] = 10 min, read-out: Average Percent Activity Remaining, LSDAO
[9] = Kitz-Wilson plot, pH 8.0 and 37 °C

Structure (SMILES): CCCCCCCNN [compound 4]
- IC50 ([1]; 10-min preincubation, 37 °C, read-out: IC50 LOX): 40 µM
- Selectivity factor (LOX IC50 value divided by LSDAO IC50 value) ([1]; 10-min preincubation): 1300
- remaining activity at 7 µM ([1]; 4 min): 89%
- remaining activity at 20 µM ([1]; 4 min): 82%
- remaining activity at 100 µM ([1]; 4 min): 59%
- remaining activity at 7 µM ([1]; 10 min): 83%
- remaining activity at 20 µM ([1]; 10 min): 63%
- remaining activity at 100 µM ([1]; 10 min): 30%
- LOX k2 (range) [1, 6]: 0.079 (0.073–0.087) min^-1 and 0.07–0.09 min^-1 and 0.079 min^-1
- KI (inactivation) ([1]; Kitz-Wilson analysis, reversible binding constant, read-out: LOX KI^-1 (range)): 57 µM
- IC50 [2]: 0.03 µM
- remaining activity at 0.03 µM [2, 7]: 81%
- remaining activity at 0.08 µM [2, 7]: 60%
- remaining activity at 0.1 µM [2, 7]: 43%
- remaining activity at 0.2 µM [2, 7]: 22%
- remaining activity at 0.5 µM [2, 7]: 1%
- remaining activity at 1 µM [2, 7]: 1%
- remaining activity at 0.03 µM [2, 8]: 45%
- remaining activity at 0.08 µM [2, 8]: 15%
- remaining activity at 0.1 µM [2, 8]: 7%
- remaining activity at 0.2 µM [2, 8]: 2%
- LSDAO k2 (range) [2, 6]: 1.0 (0.75–1.6) min^-1 and 1.0 min^-1
- KI (inactivation) ([2]; read-out: LSDAO KI^-1 (range), Kitz-Wilson analysis, reversible binding constant): 0.9 µM

Structure (SMILES): NNc1ccccc1 [compound 1, phenylhydrazine, reference compound]
- pKa of conjugate acid [3]: 5
- IC50 [1]: 6 µM
- Selectivity factor (LOX IC50 value divided by LSDAO IC50 value) ([1]; 10-min preincubation): 600
- IC50 [2]: 0.01 µM
- remaining activity at 0.005 µM [2, 8]: 80%
- remaining activity at 0.0075 µM [2, 8]: 62%
- remaining activity at 0.01 µM [2, 8]: 50%
- remaining activity at 0.015 µM [2, 8]: 13%
- remaining activity at 0.03 µM [2, 8]: 0%
- remaining activity at 0.1 µM [2, 8]: 0%
- remaining activity at 0.5 µM [2, 8]: 0%
- LOX k2 (range) [4]: 0.32 (0.16 to >10) min^-1 and 0.32 min^-1
- KI (inactivation) ([4]; read-out: LOX KI^-1 (range)): 13 µM

Structure (SMILES): N#CCCN [compound 2, β-aminopropionitrile]
- Inhibition of LOX at 10 μM ([5]; 10 μM, 2-h incubation): full inhibition
- IC50 ([5]; 2-h incubation): 0.2 µM
- KI (inactivation) [5, 9]: 6 µM
- k2 LOX [5, 9]: 0.16 min⁻¹
